Measurements from patent publication US12297194B2, “N2-phenylpyrimidine-2,4-diamine compounds, and preparation methods and methods of use thereof” (BRIDGE BIOTHERAPEUTICS, INC., priority 2021, dated 2025).

How the values were obtained:
Format in all cases: cell-based, murine
[1] = target: Ba/F3 EGFR L858R/T790M/C797S mutants (Homo sapiens, UniProt P00533, T790M/C797S/L858R, cells depend on it); assay: CellTiter-Glo cell viability, Ba/F3 EGFR L858R/T790M/C797S cells; settings: 72 hours, read-out: Ba/F3 EGFR mutant cell (IC50, nM) L/T/C
Summary of the method: (§1)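 Ba/F3 cells expressing wild-type or mutant EGFR were seeded at 2500 cells/well, treated after 24 hours with compound at 0–2000 nM (ten points), and incubated 72 hours at 37° C. Viability was read as cellular ATP by CellTiter-Glo luminescence, and IC50 values were fitted from the dose-response.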

[2] = target: Ba/F3 EGFR Del19/C797S mutants (Homo sapiens, UniProt P00533, C797S, cells depend on it, form not given); assay: CellTiter-Glo cell viability, Ba/F3 EGFR Del19/C797S cells; settings: 72 hours, read-out: Ba/F3 EGFR mutant cell (IC50, nM) D/C
Summary of the method: as §1

Ba/F3 EGFR Wild-type = Ba/F3 EGFR Wild-type (Homo sapiens, UniProt P00533); assay: CellTiter-Glo cell viability, Ba/F3 EGFR wild-type cells; settings: 72 hours, read-out: Ba/F3 EGFR mutant cell (IC50, nM) WT
Summary of the method: as §1

[3] = target: Ba/F3 EGFR Del19/T790M/C797S mutants (Homo sapiens, UniProt P00533, T790M/C797S, cells depend on it, form not given); assay: CellTiter-Glo cell viability, Ba/F3 EGFR Del19/T790M/C797S cells; settings: 72 hours, read-out: Ba/F3 EGFR mutant cell (IC50, nM) D/T/C
Summary of the method: as §1

[4] = target: Ba/F3 EGFR Del19/T790M mutants (Homo sapiens, UniProt P00533, T790M, cells depend on it, form not given); assay: CellTiter-Glo cell viability, Ba/F3 EGFR Del19/T790M cells; settings: 72 hours, read-out: Ba/F3 EGFR mutant cell (IC50, nM) D/T
Description: In order to evaluate an inhibitory ability on wild-type Ba/F3 EGFR and Ba/F3 EGFR mutations in Ba/F3 cell lines by the compounds of Formula 1, the experiment was carried out as described below.
The measurement of activities on Ba/F3 cells harboring wild-type EGFR and EGFR mutants by the compounds of the present invention were determined utilizing the CELLTITER-GLO™ system from Promega, as follows. The CELLTITER-GLO™ assay is a method for measuring the ATP present in cells to determine the cell viability. Ba/F3 EGFR wild-type and Ba/F3 EGFR L858R/C797S (L/C), Ba/F3 EGFR L858R/T790M/C797S (L/T/C), Ba/F3 EGFR Del19/T790M (D/T), Ba/F3 EGFR Del19/C797S (D/C), Ba/F3 EGFR Del19/T790M/C797S (D/T/C) mutant cell lines were maintained in RPMI1640, containing […], 1% penicillin-streptomycin, […] puromycin. Cells were grown in a humidified incubator at 37° C. with […].
The analysis of an EGFR inhibitory activity by the compounds was carried out in accordance with the analysis reaction recipe below.
2500 cells/90 μL were seeded in 96 well cell culture plate, and after 24 hours, treated with the compounds represented by Formula 1 in concentrations of 0, 0.3, 0.9, 2.7, 8.2, 24.7, 74.1, 222.2, 666.7, 2000 (nM). After the reaction of 72 hours, the plate was incubated for 30 minutes at ambient temperature, and then, was further treated with 100 μL of the CELLTITER-GLO™ reagent and was shaken for 10 minutes at ambient temperature. Finally, measurement of the luminescence values were obtained using the SPECTRAMAX™ iD3 (Molecular Devices), and the IC50 values of the compound were analyzed using the GraphPad Prism program (version 9.0.2, GraphPad Software, Inc.).

[5] = target: Ba/F3 EGFR L858R/C797S mutants (Homo sapiens, UniProt P00533, C797S/L858R, cells depend on it); assay: CellTiter-Glo cell viability, Ba/F3 EGFR L858R/C797S cells; settings: 72 hours, read-out: Ba/F3 EGFR mutant cell (IC50, nM) L/C
Summary of the method: as §1

Chain of Ba/F3 EGFR Del19/T790M/C797S mutants (P00533 with tags, fused parts or gaps DEL746-750/T790M/C797S, form open): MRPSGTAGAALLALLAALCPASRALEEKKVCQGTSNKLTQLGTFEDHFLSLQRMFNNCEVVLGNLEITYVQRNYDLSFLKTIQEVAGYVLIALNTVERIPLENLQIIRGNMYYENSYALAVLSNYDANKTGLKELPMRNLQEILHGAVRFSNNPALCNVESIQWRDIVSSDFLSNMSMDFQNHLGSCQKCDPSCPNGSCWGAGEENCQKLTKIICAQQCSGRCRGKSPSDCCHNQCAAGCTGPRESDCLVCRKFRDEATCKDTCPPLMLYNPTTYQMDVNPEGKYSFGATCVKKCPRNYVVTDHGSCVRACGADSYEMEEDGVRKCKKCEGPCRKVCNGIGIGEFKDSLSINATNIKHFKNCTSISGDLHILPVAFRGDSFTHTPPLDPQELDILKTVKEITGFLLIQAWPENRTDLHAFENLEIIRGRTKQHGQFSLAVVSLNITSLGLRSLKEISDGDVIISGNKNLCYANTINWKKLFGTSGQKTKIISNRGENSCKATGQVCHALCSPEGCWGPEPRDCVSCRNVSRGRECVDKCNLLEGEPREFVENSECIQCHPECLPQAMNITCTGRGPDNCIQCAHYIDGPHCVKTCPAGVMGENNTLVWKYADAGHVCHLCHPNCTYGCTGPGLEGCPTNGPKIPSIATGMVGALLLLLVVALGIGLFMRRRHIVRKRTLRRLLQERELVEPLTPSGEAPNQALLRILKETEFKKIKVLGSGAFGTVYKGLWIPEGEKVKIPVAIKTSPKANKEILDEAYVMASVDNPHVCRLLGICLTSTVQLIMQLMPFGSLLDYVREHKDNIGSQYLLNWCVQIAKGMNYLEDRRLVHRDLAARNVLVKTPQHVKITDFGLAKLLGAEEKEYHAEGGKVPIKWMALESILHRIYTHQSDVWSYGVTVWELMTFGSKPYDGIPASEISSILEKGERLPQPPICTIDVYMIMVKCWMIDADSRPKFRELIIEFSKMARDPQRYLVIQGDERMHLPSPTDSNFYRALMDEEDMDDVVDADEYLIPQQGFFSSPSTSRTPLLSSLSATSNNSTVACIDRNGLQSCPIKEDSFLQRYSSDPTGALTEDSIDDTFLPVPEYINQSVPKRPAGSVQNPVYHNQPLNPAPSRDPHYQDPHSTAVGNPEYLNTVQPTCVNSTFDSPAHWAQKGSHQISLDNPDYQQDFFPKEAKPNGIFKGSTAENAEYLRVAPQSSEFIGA
Chain of Ba/F3 EGFR L858R/C797S mutants (P00533 whole entry C797S/L858R): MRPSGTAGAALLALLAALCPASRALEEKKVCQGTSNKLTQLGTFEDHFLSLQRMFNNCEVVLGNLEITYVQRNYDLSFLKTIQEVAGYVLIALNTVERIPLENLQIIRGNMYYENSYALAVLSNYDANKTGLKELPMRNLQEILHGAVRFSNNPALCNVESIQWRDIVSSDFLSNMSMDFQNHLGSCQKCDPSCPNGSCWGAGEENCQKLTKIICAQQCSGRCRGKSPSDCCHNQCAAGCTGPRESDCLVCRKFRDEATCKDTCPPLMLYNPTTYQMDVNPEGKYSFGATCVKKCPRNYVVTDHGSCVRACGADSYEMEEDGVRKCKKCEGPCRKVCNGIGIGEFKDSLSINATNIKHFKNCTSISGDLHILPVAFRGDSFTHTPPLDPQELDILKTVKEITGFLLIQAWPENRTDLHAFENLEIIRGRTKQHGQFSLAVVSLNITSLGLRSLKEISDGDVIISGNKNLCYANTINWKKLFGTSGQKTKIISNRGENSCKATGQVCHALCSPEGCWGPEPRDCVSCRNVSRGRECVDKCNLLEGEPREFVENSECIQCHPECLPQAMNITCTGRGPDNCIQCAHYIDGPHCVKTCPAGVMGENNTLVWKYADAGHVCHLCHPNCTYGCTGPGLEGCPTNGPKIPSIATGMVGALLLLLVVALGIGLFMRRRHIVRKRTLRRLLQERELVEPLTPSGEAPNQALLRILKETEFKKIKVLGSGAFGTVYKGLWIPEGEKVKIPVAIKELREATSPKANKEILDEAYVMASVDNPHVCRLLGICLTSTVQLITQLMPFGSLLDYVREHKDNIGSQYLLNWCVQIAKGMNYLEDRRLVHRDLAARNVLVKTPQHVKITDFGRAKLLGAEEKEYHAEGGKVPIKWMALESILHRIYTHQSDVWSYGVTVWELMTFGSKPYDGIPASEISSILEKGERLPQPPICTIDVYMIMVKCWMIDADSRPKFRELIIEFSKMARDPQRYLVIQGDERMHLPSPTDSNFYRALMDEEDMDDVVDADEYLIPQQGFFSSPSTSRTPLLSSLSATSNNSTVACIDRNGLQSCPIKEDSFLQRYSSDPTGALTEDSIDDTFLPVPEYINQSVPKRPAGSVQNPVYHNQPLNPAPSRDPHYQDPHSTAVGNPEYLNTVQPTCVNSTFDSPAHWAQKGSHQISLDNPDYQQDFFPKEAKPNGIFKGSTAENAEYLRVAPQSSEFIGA
Chain of Ba/F3 EGFR Del19/C797S mutants (P00533 with tags, fused parts or gaps DEL746-750/C797S, form open): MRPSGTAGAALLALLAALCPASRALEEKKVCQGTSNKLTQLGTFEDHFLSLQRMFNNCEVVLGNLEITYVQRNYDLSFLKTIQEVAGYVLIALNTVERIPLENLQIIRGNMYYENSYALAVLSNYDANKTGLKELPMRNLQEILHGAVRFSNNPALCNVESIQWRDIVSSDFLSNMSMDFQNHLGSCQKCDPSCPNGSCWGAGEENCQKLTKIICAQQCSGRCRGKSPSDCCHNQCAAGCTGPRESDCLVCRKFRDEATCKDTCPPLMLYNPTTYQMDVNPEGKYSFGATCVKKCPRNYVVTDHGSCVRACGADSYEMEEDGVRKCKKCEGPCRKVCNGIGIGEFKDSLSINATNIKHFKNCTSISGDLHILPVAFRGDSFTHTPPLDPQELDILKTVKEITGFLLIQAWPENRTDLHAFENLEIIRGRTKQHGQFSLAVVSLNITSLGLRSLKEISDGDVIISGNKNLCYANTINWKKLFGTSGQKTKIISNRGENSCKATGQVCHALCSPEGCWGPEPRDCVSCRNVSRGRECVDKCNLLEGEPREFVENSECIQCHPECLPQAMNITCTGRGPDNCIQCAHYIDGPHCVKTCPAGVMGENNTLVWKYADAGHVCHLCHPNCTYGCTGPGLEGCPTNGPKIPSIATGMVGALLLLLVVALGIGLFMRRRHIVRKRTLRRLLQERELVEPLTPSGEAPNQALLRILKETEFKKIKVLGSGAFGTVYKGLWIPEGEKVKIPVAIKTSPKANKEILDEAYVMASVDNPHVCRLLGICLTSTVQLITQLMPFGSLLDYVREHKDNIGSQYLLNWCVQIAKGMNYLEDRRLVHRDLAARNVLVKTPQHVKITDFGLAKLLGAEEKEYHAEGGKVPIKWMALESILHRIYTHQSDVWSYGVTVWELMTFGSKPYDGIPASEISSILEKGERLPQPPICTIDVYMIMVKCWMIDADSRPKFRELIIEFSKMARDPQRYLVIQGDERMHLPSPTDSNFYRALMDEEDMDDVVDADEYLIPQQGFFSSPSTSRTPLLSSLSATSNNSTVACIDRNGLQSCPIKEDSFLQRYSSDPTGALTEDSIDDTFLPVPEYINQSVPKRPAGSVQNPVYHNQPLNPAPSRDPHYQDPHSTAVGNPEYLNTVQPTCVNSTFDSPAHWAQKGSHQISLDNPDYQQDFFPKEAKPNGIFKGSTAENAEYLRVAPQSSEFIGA
Chain of Ba/F3 EGFR L858R/T790M/C797S mutants (P00533 whole entry T790M/C797S/L858R): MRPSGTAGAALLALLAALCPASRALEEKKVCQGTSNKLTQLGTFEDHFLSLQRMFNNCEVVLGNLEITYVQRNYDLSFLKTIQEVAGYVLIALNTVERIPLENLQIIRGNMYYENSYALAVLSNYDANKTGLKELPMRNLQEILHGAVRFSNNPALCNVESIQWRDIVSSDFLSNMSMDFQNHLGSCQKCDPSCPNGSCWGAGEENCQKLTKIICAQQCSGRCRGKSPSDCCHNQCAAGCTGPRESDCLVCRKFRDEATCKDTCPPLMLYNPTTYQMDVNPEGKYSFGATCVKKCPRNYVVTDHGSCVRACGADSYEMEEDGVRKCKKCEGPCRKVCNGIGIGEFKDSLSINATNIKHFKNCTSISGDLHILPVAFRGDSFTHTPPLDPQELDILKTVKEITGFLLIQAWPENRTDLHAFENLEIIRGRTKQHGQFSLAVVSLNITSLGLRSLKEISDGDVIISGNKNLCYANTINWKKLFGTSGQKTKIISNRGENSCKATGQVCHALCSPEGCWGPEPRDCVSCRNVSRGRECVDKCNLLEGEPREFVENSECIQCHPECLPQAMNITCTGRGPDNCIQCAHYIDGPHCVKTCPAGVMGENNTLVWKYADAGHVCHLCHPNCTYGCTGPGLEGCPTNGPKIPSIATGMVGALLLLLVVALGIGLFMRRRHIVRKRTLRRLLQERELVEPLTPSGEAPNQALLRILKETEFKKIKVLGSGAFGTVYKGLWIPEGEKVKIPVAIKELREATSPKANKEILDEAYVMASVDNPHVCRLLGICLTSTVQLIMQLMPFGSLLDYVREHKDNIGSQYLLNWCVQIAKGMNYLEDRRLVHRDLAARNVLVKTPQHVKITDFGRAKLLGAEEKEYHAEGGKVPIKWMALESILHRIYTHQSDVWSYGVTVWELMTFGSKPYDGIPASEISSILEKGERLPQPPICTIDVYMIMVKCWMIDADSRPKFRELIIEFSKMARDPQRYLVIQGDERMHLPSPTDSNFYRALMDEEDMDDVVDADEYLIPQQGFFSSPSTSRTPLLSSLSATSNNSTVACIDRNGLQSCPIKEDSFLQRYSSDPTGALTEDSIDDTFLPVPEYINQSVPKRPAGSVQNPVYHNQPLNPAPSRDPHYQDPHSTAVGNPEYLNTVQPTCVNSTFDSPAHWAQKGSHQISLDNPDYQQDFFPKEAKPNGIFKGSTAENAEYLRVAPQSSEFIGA

Compound	GI50 [1] [nM]	GI50 [2] [nM]	GI50 (Ba/F3 EGFR Wild-type) [nM]	GI50 [3] [nM]	GI50 [4] [nM]	GI50 [5] [nM]
COc1cc(N2CCC(N3CCN(CC(F)F)CC3)CC2)ccc1Nc1ncc(Cl)c(Nc2ccc3nccnc3c2NS(C)(=O)=O)n1 [Example A37, N-(6-((5-chloro-2-((4-(4-(4-(2,2-difluoroethyl)piperazin-1-yl)piperidin-1-yl)-2-methoxyphenyl)amino)pyrimidin-4-yl)amino)quinoxalin-5-yl)methane sulfonamide]	640	126	734	205	174	451
CCc1cc(Nc2ncc(Br)c(Nc3ccc4nccnc4c3N(C)S(C)(=O)=O)n2)c(OC)cc1N1CCC(N2CCOCC2)CC1 [Example A39, N-(6-((5-bromo-2-((5-ethyl-2-methoxy-4-(4-morpholinopiperidin-1-yl)phenyl)amino)pyrimidin-4-yl)amino)quinoxalin-5-yl)-N-methylmethanesulfonamide]	35	8	779	8	4	61
CCc1cc(Nc2ncc(Cl)c(Nc3ccc4nccnc4c3N(C)S(C)(=O)=O)n2)c(OC)cc1N1CCC(N2CCOCC2)CC1 [Example A40, N-(6-((5-chloro-2-((5-ethyl-2-methoxy-4-(4-morpholinopiperidin-1-yl)phenyl)amino)pyrimidin-4-yl)amino)quinoxalin-5-yl)-N-methylmethanesulfonamide]	94	10	845	12	10	50
CCCc1cc(Nc2ncc(Cl)c(Nc3ccc4nccnc4c3N(C)S(C)(=O)=O)n2)c(OC)cc1N1CCC(N2CCOCC2)CC1 [Example A41, N-(6-((5-chloro-2-((2-methoxy-4-(4-morpholinopiperidin-1-yl)-5-propylphenyl)amino)pyrimidin-4-yl)amino)quinoxalin-5-yl)-N-methylmethanesulfonamide]	258	8	> 2000	28	44	210
CCCc1cc(Nc2ncc(Cl)c(Nc3ccc4nccnc4c3N(C)S(C)(=O)=O)n2)c(OC)cc1N1CCC(N2CCCC2)CC1 [Example A42, N-(6-((5-chloro-2-((2-methoxy-5-propyl-4-(4-(pyrrolidin-1-yl)piperidin-1-yl)phenyl)amino)pyrimidin-4-yl)amino)quinoxalin-5-yl)-N-methylmethanesulfonamide]	117	2	1860	7	33	80
CCc1cc(Nc2ncc(Cl)c(Nc3ccc4nccnc4c3N(C)S(C)(=O)=O)n2)c(OC)cc1N1CCC(N2CCCC2)CC1 [Example A43, N-(6-((5-chloro-2-((5-ethyl-2-methoxy-4-(4-(pyrrolidin-1-yl)piperidin-1-yl)phenyl)amino)pyrimidin-4-yl)amino)quinoxalin-5-yl)-N-methylmethanesulfonamide]	35	6	507	5	8	28
CCc1cc(Nc2ncc(Br)c(Nc3ccc4nccnc4c3N(C)S(C)(=O)=O)n2)c(OC)cc1N1CCC(N2CCCCC2)CC1 [Example A44, N-(6-((2-((4-([1,4′-bipiperidin]-1′-yl)-5-ethyl-2-methoxyphenyl)amino)-5-bromopyrimidin-4-yl)amino)quinoxalin-5-yl)-N-methylmethanesulfonamide]	38	6	> 2000	10	12	94
